Assay results as given in ChEMBL document CHEMBL3877319, “Synthesis of Ofornine mimics from natural product l-vasicine as anti-hypertensive agents” (Bioorg Med Chem, 2017).

Columns and labels:
Assay type in all cases: functional
Rattus norvegicus [1] = experiment: Anti-hypertensive activity in Wistar rat assessed as systolic blood pressure at 10 mg/kg, iv after 120 mins (reference value: 110 to 124.6 mmHg)
Rattus norvegicus [2] = experiment: Anti-hypertensive activity in Wistar rat assessed as systolic blood pressure at 10 mg/kg, iv after 60 mins (reference value: 110 to 124.6 mmHg)
Rattus norvegicus [3] = experiment: Anti-hypertensive activity in Wistar rat assessed as diastolic blood pressure at 10 mg/kg, iv after 15 mins (reference value: 77.15 to 94.4 mmHg)
Rattus norvegicus [4] = experiment: Anti-hypertensive activity in Wistar rat assessed as diastolic blood pressure at 10 mg/kg, iv after 120 mins (reference value: 77.15 to 94.4 mmHg)
Rattus norvegicus [5] = experiment: Anti-hypertensive activity in Wistar rat assessed as diastolic blood pressure at 10 mg/kg, iv after 30 mins (reference value: 77.15 to 94.4 mmHg)
Rattus norvegicus [6] = experiment: Anti-hypertensive activity in Wistar rat assessed as systolic blood pressure at 10 mg/kg, iv after 30 mins (reference value: 110 to 124.6 mmHg)
Rattus norvegicus [7] = experiment: Anti-hypertensive activity in Wistar rat assessed as diastolic blood pressure at 10 mg/kg, iv after 5 mins (reference value: 77.15 to 94.4 mmHg)
Rattus norvegicus [8] = experiment: Anti-hypertensive activity in Wistar rat assessed as systolic blood pressure at 10 mg/kg, iv after 15 mins (reference value: 110 to 124.6 mmHg)
Rattus norvegicus [9] = experiment: Anti-hypertensive activity in Wistar rat assessed as systolic blood pressure at 10 mg/kg, iv after 180 mins (reference value: 110 to 124.6 mmHg)
Rattus norvegicus [10] = experiment: Anti-hypertensive activity in Wistar rat assessed as diastolic blood pressure at 10 mg/kg, iv after 60 mins (reference value: 77.15 to 94.4 mmHg)
Rattus norvegicus [11] = experiment: Anti-hypertensive activity in Wistar rat assessed as diastolic blood pressure at 10 mg/kg, iv after 150 mins (reference value: 77.15 to 94.4 mmHg)
Rattus norvegicus [12] = experiment: Anti-hypertensive activity in Wistar rat assessed as systolic blood pressure at 10 mg/kg, iv after 5 mins (reference value: 110 to 124.6 mmHg)
Rattus norvegicus [13] = experiment: Anti-hypertensive activity in Wistar rat assessed as systolic blood pressure at 10 mg/kg, iv after 150 mins (reference value: 110 to 124.6 mmHg)
Rattus norvegicus [14] = experiment: Anti-hypertensive activity in Wistar rat assessed as diastolic blood pressure at 10 mg/kg, iv after 180 mins (reference value: 77.15 to 94.4 mmHg)

SMILES | Activity (Rattus norvegicus [1]) [mmHg] | Activity (Rattus norvegicus [2]) [mmHg] | Activity (Rattus norvegicus [3]) [mmHg] | Activity (Rattus norvegicus [4]) [mmHg] | Activity (Rattus norvegicus [5]) [mmHg] | Activity (Rattus norvegicus [6]) [mmHg] | Activity (Rattus norvegicus [7]) [mmHg] | Activity (Rattus norvegicus [8]) [mmHg] | Activity (Rattus norvegicus [9]) [mmHg] | Activity (Rattus norvegicus [10]) [mmHg] | Activity (Rattus norvegicus [11]) [mmHg] | Activity (Rattus norvegicus [12]) [mmHg] | Activity (Rattus norvegicus [13]) [mmHg] | Activity (Rattus norvegicus [14]) [mmHg]
CCCCCc1ccc(-c2cn([C@@H]3CCN(C(=O)c4ccccc4Nc4ccncc4)C3)nn2)cc1 | 115.6 | 111.6 | 67.75 | 80.3 | 79.7 | 108.4 | 59.8 | 97 | 115.3 | 81.4 | 77.3 | 86.15 | – | –
O[C@H]1CCN(Cc2ccccc2Nc2ccncc2)C1 | 118.2 | 115.7 | 73.74 | 75.97 | 75.5 | 120.6 | 77.06 | 119.9 | 124.4 | 81.18 | 76.6 | 120.4 | 122.9 | 83.32
O=C(c1ccccc1Nc1ccncc1)N1CC[C@@H](n2cc(C3CC3)nn2)C1 | 111.6 | 108.2 | 79.63 | 86.96 | 76.29 | 112.2 | 77.08 | 115.1 | 117.2 | 73.85 | 85.74 | 116.4 | 110.4 | 86.32
O=C(c1ccccc1Nc1ccncc1)N1CC[C@@H](n2cc(-c3ccc(F)cc3)nn2)C1 | 122.6 | 117.6 | 73.8 | 86.3 | 84.63 | 108.6 | 42.9 | 106.2 | 128.9 | 84.8 | 90.3 | 46.6 | 124.6 | 90.58
CCCCCCc1ccc(-c2cn([C@@H]3CCN(C(=O)c4ccccc4Nc4ccncc4)C3)nn2)cc1 | 118.9 | 111.9 | 81.7 | 91.75 | 83.6 | 111.6 | 74.8 | 104.9 | 119.9 | 83.25 | 92.8 | 94.4 | 118.7 | 91
O[C@@H]1CCN(Cc2ccccc2)C1 | 112.3 | 121.4 | 57.86 | 74.19 | 70.89 | 119.3 | 52.65 | 116.4 | 118.9 | 77.25 | 78.62 | 107.9 | 114.6 | 83.15
O=C(c1ccccc1-n1cc(C2CC2)nn1)N1CC[C@@H](O)C1 | 120.4 | 120 | 90.7 | 83.3 | 84.35 | 118.1 | 79.6 | 114.91 | 123.7 | 82.75 | 84.3 | 113.8 | 121.7 | 86.6
[N-]=[N+]=N[C@@H]1CCN(C(=O)c2ccccc2Nc2ccncc2)C1 | 115.6 | 111.6 | 67.75 | 80.3 | 79.7 | 108.4 | 59.8 | 97 | 115.3 | 81.4 | 77.3 | 86.15 | – | –
O=C(c1ccccc1-n1cc(-c2ccc(-c3ccccc3)cc2)nn1)N1CC[C@@H](O)C1 | 107.3 | 110.1 | 82 | 87.8 | 79.1 | 106.9 | 82 | 113 | 109.6 | 86.8 | 81.3 | 112 | 116.3 | 78.3
C[Si](C)(C)O[C@@H]1CCNC1 | 118.5 | 117.6 | 85.42 | 89.49 | 87.98 | 119.9 | 84.74 | 119.7 | 121.6 | 83.9 | 88.4 | 119.9 | 122.4 | 84.75
Nc1ccccc1C(=O)N1CCC(O)C1 (single isomer, unassigned) | 118.8 | 119.5 | 86.88 | 79.57 | 82.62 | 124.3 | 80.42 | 123.4 | 123.1 | 82.62 | 79.95 | 107.8 | 121.4 | 86.45
CCCCCc1cn([C@@H]2CCN(C(=O)c3ccccc3Nc3ccncc3)C2)nn1 | 109.8 | 105.4 | 80.5 | 80.5 | 77.6 | 103.8 | 73.2 | 101.7 | 117.6 | 80.2 | 81.9 | 96.7 | 114.9 | 85.4
O=C(c1ccccc1Nc1ccncc1)N1CCCCC1 [OFORNINE] | 90.5 | 88.6 | 61 | 64.5 | 62.8 | 89.5 | 53.3 | 89.45 | 117 | 64.05 | 77.9 | 83.3 | 113.8 | 90.8
